Test in all cases: microbe, parasite or virus in culture
The test system of experiment [1] is Mycobacterium tuberculosis. To be noted: 336 h.
Experiment [2] relates to Mycobacterium tuberculosis. Conditions: MD55.
Experiment [3] relates to Mycobacterium tuberculosis. Conditions: MD96.
Experiment [4] has as its system Mycobacterium tuberculosis. Conditions: R88.
Experiment [5] relates to Mycobacterium tuberculosis. Conditions: R296.
Experiment [6] relates to Mycobacterium tuberculosis. To be noted: R3027.

Values after ≈ are worked out from the molar mass of the structure shown.

The compound `NNC(=O)c1ccncc1` [ISONIAZID] showed an MIC in experiment [1] of 31.2 µM (≈ 4.28 µg/mL). Same read-out and setting: the result for `CS(=O)(=O)NC(=O)NCc1cc(-c2ccc(Br)cc2)oc1-c1ccncc1` reads less than 0.13 µM; that for `CS(=O)(=O)NC(=O)NCc1cn(-c2ccc(Cl)cc2)nc1-c1ccncc1`, less than 0.12 µM; that for `CS(=O)(=O)NC(=O)CCc1cn(-c2ccc(Br)cc2)nc1-c1ccc(Cl)cc1`, 0.4 µM (≈ 0.193 µg/mL). The same measure, in the same setting: the result for `CO[C@H]1/C=C/O[C@@]2(C)Oc3c(C)c(O)c4c(O)c(c(/C=N/N5CCN(C)CC5)c(O)c4c3C2=O)NC(=O)/C(C)=C\C=C\[C@H](C)[C@H](O)[C@@H](C)[C@@H](O)[C@@H](C)[C@H](OC(C)=O)[C@@H]1C` [RIFAMPIN] reads 0.001 µM (≈ 0.000823 µg/mL). On the same count and under the same terms, the result for `CS(=O)(=O)NC(=O)CCc1cn(-c2ccc(Cl)cc2)nc1-c1ccc(Cl)cc1` reads 0.24 µM (≈ 0.105 µg/mL).

In the case of `CS(=O)(=O)NC(=O)CCc1cn(-c2ccc(Br)cc2)nc1-c1ccncc1`, the MIC in experiment [2] is 60 µM (≈ 27 µg/mL); in experiment [3], not above 30 µM; in experiment [4], 30 µM (≈ 13.5 µg/mL); in experiment [5], 60 µM (≈ 27 µg/mL); in experiment [6] it was 60 µM (≈ 27 µg/mL).
